In PMC6156138, “Combination of a Latency-Reversing Agent With a Smac Mimetic Minimizes Secondary HIV-1 Infection in vitro” (Frontiers in Microbiology, 2018):

Assays:
[1] = system: latent HIV-1-infected U1 cells; test: HIV reactivation from latent cells: supernatant p24 antigen; assay type: cell-based; conditions: day 2, single drug (Figure 1B)
Method: The reactivation of HIV-1 from latently infected cells was determined by the measurement of supernatant p24 antigen and intracellular HIV-1 RNA levels. ACH-2 cells or U1 cells (5 × 10^5 cells/mL) were placed in 96-well plates, and then the cells were incubated with different concentrations of drugs for 24 h to extract RNA and for 48 h to collect the supernatant. The increase in supernatant p24 antigen levels was measured using […] G1200 (Fujirebio, Tokyo, Japan). The total RNA was extracted using an RNeasy Mini Kit (Qiagen, Hilden, Germany), following the manufacturer’s protocols. The cDNA was synthesized using PrimeScript RT Master Mix (Takara Bio, Shiga, Japan), and quantitative real-time PCR analyses for the intracellular HIV-1 RNA were carried out with PowerUp^TM SYBR Green Master Mix (Applied Biosystems, Foster City, CA, United States). The oligonucleotide primers used were as follows: 5′-[…]-3′ (forward) and 5′-[…]-3′ (reverse) for HIV-RNA detection; 5′-[…]-3′ (forward) and 5′-[…]-3′ (reverse) for β-actin. The HIV-RNA expressions were normalized with that of β-actin, which was indicated as the relative quantity, and the increase in HIV-1 RNA levels in the presence of a drug was compared with that without a drug.
FIGURE 1 (A,B) The increase in viral production from ACH-2 cells (A) and U1 cells (B) was examined by supernatant p24 antigen levels on day 2. (C,D) Changes in the intracellular HIV-1 mRNA levels due to treatment with these drugs in ACH-2 cells (C) and U1 cells (D) after 24 h of incubation.

ACH-2 cells [2] = test: Living cell numbers of ACH-2 cells in the presence of drug(s); assay type: cell-based; conditions: birinapant 50 nM; for cell toxicity / replication of ACH-2 cells: PEP005 5 nM (Figure 2C)
Method: FIGURE 2 (A) Effect of birinapant when combined with TNF-α. The supernatant p24 levels with birinapant (1∼100 nM) in ACH-2 cell culture on day 2 are shown in white bars, and p24 values with birinapant when combined with TNF-α (10 ng/ml) are shown in black bars. (B) HIV-1 production from ACH-2 cells when reactivated by PEP005 (0.05∼50 nM) for 24 h. (C) Changes in the living cell numbers in the presence of drug(s) on days 1, 3, and 5.

ACH-2 cells [3] = test: FACS analysis of active caspase-3 expression; assay type: cell-based; conditions: for percentage of active caspase-3 cells: ACH-2 cells, 24 h
Method: Intracellular HIV-1 p24 levels and active form of caspase-3 expression were determined as previously described ([Hattori et al., 2009]; [Duro et al., 2010]; [Matsuda et al., 2015]). In brief, ACH-2 cells or U1 cells (2.5 × 10^5 cells/mL) were fixed with 1% paraformaldehyde/phosphate buffered saline (PBS) for 20 min and were permeabilized with Flow Cytometry Perm Buffer (TONBO biosciences, San Diego, CA, United States). After incubation on ice for 5 min, the cells were stained with anti-HIV-1 p24 (24-4)-FITC mAb (Santa Cruz Biotechnology, Dallas, TX, United States) and/or with Alexa Fluor 647-conjugated anti-active caspase-3 mAb (C92-605) (BD Pharmingen, San Diego, CA, United States) for 30 min on ice. Cells were then analyzed on a BD FACSVerse flow cytometer (BD Biosciences, Franklin Lakes, NJ, United States). The corrected data were analyzed with FlowJo software (Tree Star, San Carlos, CA, United States).
FIGURE 3 (A,B) ACH-2 (A) and U1 cells (B) were treated with birinapant (50 nM), PEP005 (5 nM), birinapant plus PEP005, TNF-α (10 ng/ml), and intracellular expression of caspase-3 was examined after 24 h of incubation. The percentage of active caspase-3 cells was determined by comparison with unstimulated cells. (C) ACH-2 cells after 24 h of PEP005 (0∼50 nM) treatment with or without birinapant (50 nM) were separately analyzed in p24^+ and p24^- populations for caspase-3 expression.
FIGURE 4 (A) ACH-2 cells were exposed to birinapant (50 nM), PEP005 (5 nM), birinapant plus PEP005, TNF-α (10 ng/ml), or birinapant plus TNF-α treatment and were cultured for 5 days, and data (FACS analysis) were collected at days 1, 3, and 5. (B) Expression of active caspase-3 in p24^+/^- populations is shown. (C) Changes in the supernatant p24 antigen levels in the presence of drug(s) on days 1, 3, and 5. […]

HIV-1 NL4-3 = test: Antiviral assay, HIV-1 NL4-3 in MT-4 cells; assay type: cell-based; conditions: for antiviral effect when combined with EFdA: HIV-1 NL4-3 in MT-4 cells; for replication of HIV-1 NL4-3 (supernatant p24): MT-4 cells, cultured for 12 days, single drug
Method: Antiviral assays using wild type HIV-1 (HIV-1 NL4-3) cells and MT-4 cells were conducted as previously described ([Maeda et al., 2014]; [Takamatsu et al., 2015]). To determine the cytotoxicity induced by LRAs and its related compounds, cells (5 × 10^5 cells/mL) were cultured in the presence or absence of LRA. After 24 h, cytotoxicity assays were performed using a Cytotoxicity LDH Assay Kit (Dojindo, Kumamoto, Japan) according to the manufacturer’s instructions. The number of living cells with the drug was measured and compared with those without the drug, and data are shown as percentage (%) of control.
Supplementary file Data_Sheet_1.PDF: FIGURE S1 The combined effect of an RT inhibitor (EFdA/MK-8591) ([Nakata et al., 2007]; [Kawamoto et al., 2008]; [Maeda et al., 2014]) and PKC activator (PEP005) on the replication of HIV-1 NL4-3 in MT-4 cells. MT-4 cells were infected with HIV-1 NL4-3 in the presence or absence of drug(s), cultured for 12 days, and the supernatant p24 levels were measured. Click here for additional data file.

[4] = system: PBMCs from a cART-treated HIV-1 patient; test: Cytotoxicity in PBMCs from HIV-1-infected patient (PI staining, flow cytometry); assay type: cell-based, human; conditions: PBMCs of cART-treated HIV-1 patient, 24 h; birinapant 50 nM, PEP005 5 nM
Method: Supplementary file Data_Sheet_3.PDF: FIGURE S3 The combined effect of birinapant (50 nM) and PEP005 (5 nM) on cytotoxicity in PBMCs obtained from HIV-1-infected patients. PBMCs from a cART-treated HIV-1 patient were cultured for 24 h in the presence or absence of drug(s), and the percentage of propidium iodide (PI)^+ cells were measured by flow cytometric analysis. Click here for additional data file.

[5] = birinapant 50 nM, PEP005 5 nM, TNF-α 10 ng/ml

C/C=C(/C)C(=O)O[C@H]1C(C)=C[C@]23C(=O)[C@@H](C=C(CO)[C@@H](O)[C@]12O)[C@H]1[C@@H](C[C@H]3C)C1(C)C [PEP005, ingenol-3-angelate]
viral production (supernatant p24 antigen levels) [1]: increased viral production | cell toxicity / replication of ACH-2 cells (ACH-2 cells [2]): strongly inhibited the replication of ACH-2 cells | number of living cells (ACH-2 cells [2]; day 5, PEP005 5 nM): 370000 mL⁻¹ | Active caspase-3 (ACH-2 cells [3]; ACH-2, 24 h, p24 (+) cells, Birinapant (-), PEP005 50nM): 13.0% | Active caspase-3 (ACH-2 cells [3]; ACH-2, 24 h, p24 (-) cells, Birinapant (-), PEP005 50nM): 44.7% | Active caspase-3 (ACH-2 cells [3]; ACH-2, Day 5, p24 (+) cells, birinapant 50 nM, PEP005 5 nM, TNF-α 10 ng/ml): ~20.7% | percentage of active caspase-3 cells (ACH-2 cells [3]; [5]): 9.98% | antiviral effect when combined with EFdA (HIV-1 NL4-3): no additive/synergistic antiviral effect | replication of HIV-1 NL4-3 (supernatant p24) (HIV-1 NL4-3): little to no effect on viral replication | ratio of dead cells (PI staining) [4]: failed to increase the number of dead cells

CC[C@H](NC(=O)[C@H](C)NC)C(=O)N1C[C@@H](O)C[C@H]1Cc1c(-c2[nH]c3cc(F)ccc3c2C[C@@H]2C[C@H](O)CN2C(=O)[C@H](CC)NC(=O)[C@H](C)NC)[nH]c2cc(F)ccc12 [Birinapant]
viral production (supernatant p24 antigen levels) [1]: only had a minor effect on HIV-1 reactivation | cell toxicity / replication of ACH-2 cells (ACH-2 cells [2]): failed to show cell toxicity | percentage of active caspase-3 cells (ACH-2 cells [3]; [5]): 2.96% | antiviral effect when combined with EFdA (HIV-1 NL4-3): no additive/synergistic antiviral effect | replication of HIV-1 NL4-3 (supernatant p24) (HIV-1 NL4-3): little to no effect on viral replication | ratio of dead cells (PI staining) [4]: slightly increased the ratio of dead cells
